Measured values: US20060009478A1, “Methods for the treatment of back pain” (priority 2003, published 2006)

System: patients with moderate to severe chronic low back pain
Test: Opioid-associated adverse events (constipation, nausea, vomiting, dizziness, somnolence, pruritus), low back pain study
[1] = event table, all occurrences, through the treatment period, ITT
[2] = event table, % of total number of events
[3] = through the treatment period, ITT population

Compound: COc1ccc2c3c1O[C@H]1C(=O)CC[C@@]4(O)[C@@H](C2)N(C)CC[C@]314 [OXY QID, oxycodone]
- Number of events, all opioid-associated adverse events [1]: 2549
- Number of events, all opioid-associated adverse events (by severity table) [1]: 2549
- Number of events, constipation [1]: 576
- Number of events, constipation, mild [1]: 430
- Number of events, constipation, moderate [1]: 119
- Number of events, constipation, severe [1]: 27
- Number of events, dizziness [1]: 390
- Number of events, dizziness, mild [1]: 314
- Number of events, dizziness, moderate [1]: 63
- Number of events, dizziness, severe [1]: 13
- Number of events, gastrointestinal disorders [1]: 1143
- Number of events, gastrointestinal disorders (by severity table) [1]: 1143
- Number of events, nausea [1]: 459
- Number of events, nausea, mild [1]: 336
- Number of events, nausea, moderate [1]: 93
- Number of events, nausea, severe [1]: 30
- Number of events, nervous system disorders [1]: 952
- Number of events, nervous system disorders (by severity table) [1]: 952
- Number of events, pruritus [1]: 454
- Number of events, pruritus, moderate [1]: 93
- Number of events, pruritus, severe [1]: 13
- Number of events, skin and subcutaneous tissue disorders [1]: 454
- Number of events, skin and subcutaneous tissue disorders (by severity table) [1]: 454
- Number of events, somnolence [1]: 562
- Number of events, somnolence, mild [1]: 390
- Number of events, somnolence, moderate [1]: 133
- Number of events, somnolence, severe [1]: 39
- Number of events, vomiting [1]: 108
- Number of events, vomiting, mild [1]: 61
- Number of events, vomiting, moderate [1]: 26
- Number of events, vomiting, severe [1]: 21
- % of all events, constipation, mild [2]: 16.9%
- % of all events, constipation, moderate [2]: 4.7%
- % of all events, constipation, severe [2]: 1.1%
- % of all events, dizziness [2]: 15.3%
- % of all events, dizziness, mild [2]: 12.3%
- % of all events, dizziness, moderate [2]: 2.5%
- % of all events, dizziness, severe [2]: 0.5%
- % of all events, gastrointestinal disorders [2]: 44.8%
- % of all events, gastrointestinal disorders (by severity table) [2]: 44.8%
- % of all events, nausea [2]: 18.0%
- % of all events, nausea, mild [2]: 13.2%
- % of all events, nausea, moderate [2]: 3.6%
- % of all events, nausea, severe [2]: 1.2%
- % of all events, nervous system disorders [2]: 37.3%
- % of all events, nervous system disorders (by severity table) [2]: 37.3%
- % of all events, pruritus [2]: 17.8%
- % of all events, pruritus, mild [2]: 13.7%
- % of all events, pruritus, moderate [2]: 3.6%
- % of all events, pruritus, severe [2]: 0.5%
- % of all events, skin and subcutaneous tissue disorders [2]: 17.8%
- % of all events, skin and subcutaneous tissue disorders (by severity table) [2]: 17.8%
- % of all events, somnolence [2]: 22.0%
- % of all events, somnolence, mild [2]: 15.3%
- % of all events, somnolence, moderate [2]: 5.2%
- % of all events, somnolence, severe [2]: 1.5%
- % of all events, vomiting [2]: 4.2%
- % of all events, vomiting, mild [2]: 2.4%
- % of all events, vomiting, moderate [2]: 1.0%
- % of all events, vomiting, severe [2]: 0.8%
- % of patients reporting constipation [3]: 59.2%
- % of patients reporting constipation, maximum severity mild [3]: 26.7%
- % of patients reporting constipation, maximum severity moderate [3]: 20.9%
- % of patients reporting constipation, maximum severity severe [3]: 11.7%
- % of patients reporting dizziness [3]: 51.9%
- % of patients reporting dizziness, maximum severity mild [3]: 29.6%
- % of patients reporting dizziness, maximum severity moderate [3]: 16.0%
- % of patients reporting dizziness, maximum severity severe [3]: 6.3%
- % of patients reporting gastrointestinal disorders [3]: 77.7%
- % of patients reporting gastrointestinal disorders (by maximum severity table) [3]: 77.7%
- % of patients reporting nausea [3]: 58.3%
- % of patients reporting nausea, maximum severity moderate [3]: 22.3%
- % of patients reporting nausea, maximum severity severe [3]: 11.7%
- % of patients reporting nervous system disorders [3]: 79.1%
- % of patients reporting nervous system disorders (by maximum severity table) [3]: 79.1%
- % of patients reporting pruritus, maximum severity mild [3]: 28.6%
- % of patients reporting pruritus, maximum severity moderate [3]: 25.2%
- % of patients reporting pruritus, maximum severity severe [3]: 6.3%
- % of patients reporting somnolence [3]: 68.0%
- % of patients reporting somnolence, maximum severity mild [3]: 23.3%
- % of patients reporting somnolence, maximum severity moderate [3]: 29.1%
- % of patients reporting somnolence, maximum severity severe [3]: 15.5%
- % of patients reporting vomiting, maximum severity mild [3]: 9.7%
- % of patients reporting vomiting, maximum severity moderate [3]: 7.8%
- % of patients reporting vomiting, maximum severity severe [3]: 6.8%
- Number of patients reporting constipation [3]: 122
- Number of patients reporting constipation, maximum severity mild [3]: 55
- Number of patients reporting constipation, maximum severity moderate [3]: 43
- Number of patients reporting constipation, maximum severity severe [3]: 24
- Number of patients reporting dizziness [3]: 107
- Number of patients reporting dizziness, maximum severity mild [3]: 61
- Number of patients reporting dizziness, maximum severity moderate [3]: 33
- Number of patients reporting dizziness, maximum severity severe [3]: 13
- Number of patients reporting gastrointestinal disorders [3]: 160
- Number of patients reporting gastrointestinal disorders (by maximum severity table) [3]: 160
- Number of patients reporting nausea [3]: 120
- Number of patients reporting nausea, maximum severity mild [3]: 50
- Number of patients reporting nausea, maximum severity moderate [3]: 46
- Number of patients reporting nausea, maximum severity severe [3]: 24
- Number of patients reporting nervous system disorders [3]: 163
- Number of patients reporting nervous system disorders (by maximum severity table) [3]: 163
- Number of patients reporting pruritus [3]: 124
- Number of patients reporting pruritus, maximum severity mild [3]: 59
- Number of patients reporting pruritus, maximum severity moderate [3]: 52
- Number of patients reporting pruritus, maximum severity severe [3]: 13
- Number of patients reporting skin and subcutaneous tissue disorders [3]: 124
- Number of patients reporting skin and subcutaneous tissue disorders (by maximum severity table) [3]: 124
- Number of patients reporting somnolence [3]: 140
- Number of patients reporting somnolence, maximum severity mild [3]: 48
- Number of patients reporting somnolence, maximum severity moderate [3]: 60
- Number of patients reporting somnolence, maximum severity severe [3]: 32
- Number of patients reporting vomiting [3]: 50
- Number of patients reporting vomiting, maximum severity mild [3]: 20
- Number of patients reporting vomiting, maximum severity moderate [3]: 16
- Number of patients reporting vomiting, maximum severity severe [3]: 14
